According to ChEMBL document CHEMBL1201862, “PubChem BioAssay data set” (2004):
Calls of active or inactive are those of the source.

Columns and labels:
[1] = biological target: Serine/threonine-protein phosphatase PP1-alpha catalytic subunit (Homo sapiens, UniProt P62136); test: inhibition of protein phosphatase 1 activity – biochemical, fluorescence, dose response (AID 2403);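 note: phosphatase turnover of OMFP into fluorescent 3-O-methylfluorescein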
[2] = biological target: Serine/threonine-protein phosphatase (Homo sapiens, UniProt Q9BPW0); test: Counterscreen for inhibitors of PP1: fluorescence-based biochemical high throughput dose response assay to identify inhibitors of Protein Phosphatase 5 (PP5). [Related pubchem assays: 2034 (Summary (PP5 inhibitors)), 1987 (PP5 inhibitors in singlate), 2235 (PP1 inhibitors in singlate)]
[3] = biological target: Mothers against decapentaplegic homolog 3 (Homo sapiens, UniProt P84022); test: blockers of Smad3 complex formation in lysate – cell lysate, secondary confirmation, chemiluminescent ELISA, HEK293 lysate, dose response (AID 1058); type: functional
Estrogen receptor = biological target: T1, Estrogen receptor (Homo sapiens, UniProt P03372); test: blockers of SRC-3 recruitment to ERα – biochemical, ELISA, streptavidin-HRP readout, orthogonal assay, confirmation (AID 1079)
T1 sequence (P03372 whole entry): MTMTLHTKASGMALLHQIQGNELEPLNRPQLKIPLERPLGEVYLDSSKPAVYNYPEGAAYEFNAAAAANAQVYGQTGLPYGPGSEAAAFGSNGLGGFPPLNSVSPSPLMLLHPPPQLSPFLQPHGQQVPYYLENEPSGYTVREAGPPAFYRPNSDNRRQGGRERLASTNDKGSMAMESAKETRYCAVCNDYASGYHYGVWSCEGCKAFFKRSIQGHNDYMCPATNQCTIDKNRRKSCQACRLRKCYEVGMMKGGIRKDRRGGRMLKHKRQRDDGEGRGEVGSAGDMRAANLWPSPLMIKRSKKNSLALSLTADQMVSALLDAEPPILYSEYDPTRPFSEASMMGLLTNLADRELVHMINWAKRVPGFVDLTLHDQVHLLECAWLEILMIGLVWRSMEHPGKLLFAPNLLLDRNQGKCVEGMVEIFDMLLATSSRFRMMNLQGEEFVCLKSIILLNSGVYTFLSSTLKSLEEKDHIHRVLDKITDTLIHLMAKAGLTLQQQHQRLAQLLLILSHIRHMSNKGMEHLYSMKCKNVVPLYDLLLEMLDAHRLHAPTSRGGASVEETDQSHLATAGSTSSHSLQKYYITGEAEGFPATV

NADPH oxidase 1 = NADPH oxidase 1 (Homo sapiens, UniProt Q9Y5S8); type: functional, cell-based;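 note: Cell-based assay with luminescence read-out, IC50 derived from inhibitor dose-response curves; intracellular ROS from endogenous NOX1 in intact HT29 colon cancer cells; potency of inhibitors that lower the ROS luminescence signal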
Sequence of NADPH oxidase 1 (Q9Y5S8 whole entry): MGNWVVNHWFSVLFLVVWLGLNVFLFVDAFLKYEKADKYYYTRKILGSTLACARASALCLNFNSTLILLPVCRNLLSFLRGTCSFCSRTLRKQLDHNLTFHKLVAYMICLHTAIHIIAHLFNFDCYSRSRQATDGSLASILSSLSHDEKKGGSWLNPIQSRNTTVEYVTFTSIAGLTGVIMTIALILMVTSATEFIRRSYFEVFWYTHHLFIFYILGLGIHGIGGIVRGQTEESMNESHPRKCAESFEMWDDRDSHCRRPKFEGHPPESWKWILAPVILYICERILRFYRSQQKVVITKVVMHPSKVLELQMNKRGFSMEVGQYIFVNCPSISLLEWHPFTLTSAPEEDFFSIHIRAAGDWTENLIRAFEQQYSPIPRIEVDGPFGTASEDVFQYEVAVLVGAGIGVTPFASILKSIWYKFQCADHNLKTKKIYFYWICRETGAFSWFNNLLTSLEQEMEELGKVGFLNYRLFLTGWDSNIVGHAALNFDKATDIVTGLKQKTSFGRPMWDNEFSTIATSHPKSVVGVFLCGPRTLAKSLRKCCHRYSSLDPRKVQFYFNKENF

Sequence of Serine/threonine-protein phosphatase (Q9BPW0 whole entry): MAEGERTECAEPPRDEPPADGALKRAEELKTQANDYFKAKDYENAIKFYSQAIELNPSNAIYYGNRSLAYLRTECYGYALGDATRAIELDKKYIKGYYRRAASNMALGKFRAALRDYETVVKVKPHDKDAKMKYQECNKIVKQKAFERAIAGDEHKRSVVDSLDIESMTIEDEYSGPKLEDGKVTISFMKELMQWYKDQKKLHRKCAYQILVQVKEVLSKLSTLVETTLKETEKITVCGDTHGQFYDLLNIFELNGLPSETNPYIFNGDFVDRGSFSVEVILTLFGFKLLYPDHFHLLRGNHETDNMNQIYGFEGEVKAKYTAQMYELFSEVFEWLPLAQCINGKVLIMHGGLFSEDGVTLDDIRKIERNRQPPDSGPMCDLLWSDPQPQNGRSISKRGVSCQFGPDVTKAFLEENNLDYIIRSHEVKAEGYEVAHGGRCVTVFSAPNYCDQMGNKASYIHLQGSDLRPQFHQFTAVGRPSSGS
Sequence of Mothers against decapentaplegic homolog 3 (P84022 whole entry): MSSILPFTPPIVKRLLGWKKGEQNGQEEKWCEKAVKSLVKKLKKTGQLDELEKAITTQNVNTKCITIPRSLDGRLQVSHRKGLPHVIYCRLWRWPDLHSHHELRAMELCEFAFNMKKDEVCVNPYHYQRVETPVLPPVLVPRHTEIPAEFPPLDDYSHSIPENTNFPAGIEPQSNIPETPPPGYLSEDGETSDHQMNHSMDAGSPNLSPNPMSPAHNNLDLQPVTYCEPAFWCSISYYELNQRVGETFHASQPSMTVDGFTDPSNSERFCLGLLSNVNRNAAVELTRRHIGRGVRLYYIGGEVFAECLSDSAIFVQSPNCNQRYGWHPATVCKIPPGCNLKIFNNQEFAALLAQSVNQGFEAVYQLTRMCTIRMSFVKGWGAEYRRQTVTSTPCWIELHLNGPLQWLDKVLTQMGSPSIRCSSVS
Sequence of Serine/threonine-protein phosphatase PP1-alpha catalytic subunit (P62136 whole entry): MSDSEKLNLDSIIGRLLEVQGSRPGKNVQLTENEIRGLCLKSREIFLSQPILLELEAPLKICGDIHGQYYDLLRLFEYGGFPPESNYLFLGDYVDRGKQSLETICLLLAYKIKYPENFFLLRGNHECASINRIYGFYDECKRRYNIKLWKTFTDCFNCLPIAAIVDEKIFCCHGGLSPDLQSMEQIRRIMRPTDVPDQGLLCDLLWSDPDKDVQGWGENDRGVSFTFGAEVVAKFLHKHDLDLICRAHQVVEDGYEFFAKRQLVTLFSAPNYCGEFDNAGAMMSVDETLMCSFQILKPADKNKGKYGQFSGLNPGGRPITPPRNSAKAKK

For `CCOC(=O)c1cnc(-n2cc(C)cn2)nc1NCc1ccc2c(c1)OCO2`, the IC50 [1] was 5.96 µM (active) and the IC50 [2] was > 67 µM (not active).

`CC1NC(C(=O)O)Cc2cc(O)c(O)cc21` (stereo not given) was tested, and the IC50 [3] was > 50 µM (not active).

`O=C(CCCn1c(=S)[nH]c2ccccc2c1=O)N1CCC(c2ccccc2)CC1` was tested, and the IC50 (Estrogen receptor) was 0.05 µM (not active).

In the case of `COc1cc(-c2nc3c4ccccc4c4ccccc4c3[nH]2)ccc1O`, the IC50 (NADPH oxidase 1) was 1.15 µM (active).
